Tests used:
[1] = Measurement of the size and zeta potential of liposomes (Zetasizer Nano ZS); format: physicochemical; settings: liposomal solution in water, 25° C.
Experimental: The cationic lipids were formulated in a liposomal solution by the method of hydration of a lipid film. Initially, a fraction of a concentrated solution of the cationic lipid is placed in a glass tube and evaporated to give a thin lipid film. 1 mL of water is then added to the film and the film is hydrated for 3 days at 4° C. The solution is then vortexed (1 min) and placed under ultrasound (30 to 60 min) at 45 kHz. Then 150 μL of the liposomal solution is diluted in 1.5 mL of sterile water. After filtration ([…]) of the liposomal solution, the size and the zeta potential of liposomes and lipoplexes are determined.
The size and zeta potential (ξ) of the liposomes and of the lipoplexes were measured with a Zetasizer Nano ZS (Malvern Instruments) at 25° C. after a suitable dilution of the formulations. For the measurements of the lipoplexes, each test used […] of plasmid DNA in water with the required amount of cationic lipid studied in order to form lipoplexes with charge ratios ranging from 0.5 to 8.0. For the measurements of the liposomes, a quantity of lipid equivalent to a mixture having a 1.0 charge ratio in water was used.

[2] = Structural organisation study via 31P NMR (Hahn echo) of hydrated lipids; format: physicochemical; settings: hydrated medium, ambient temperature
Experimental: A stock solution of a cationic lipid is prepared in the chloroform. A volume of stock solution corresponding to a weight in lipids between 50 mg and 100 mg is pipette into a haemolysis tube and the chloroform is evaporated under of flow of N2 in such a way as to obtain a lipid film. 500 μL of water is then added and the mixture is subjected to ultrasound until complete dispersion of the lipid film. The mixture is lysed for one night. A volume of distilled water is then added in order to obtain a solution with a concentration of 100 mg·mL^−1. In order to ensure the balance of the sample, three cycles −198° C./50° C. are carried out: the sample is placed at −198° C. (liquid nitrogen) for 5 min, then the sample is placed in a water bath at 50° C. for 30 min and is vortexed.
The NMR ^31P spectra were acquired with a Hahn echo sequence (90°-τ-180°-τ-acq). The acquisition parameters were as follows: spectral window of 200 KHz, a pulse π/2 with a duration of […], a recycling period of 5 s and an echo period of 40 μs. The number of acquisitions depends on the volume of the sample and the acquisition temperature, and is between 128 and 1700 scans. The temperature of the sample is balanced for 30 min before the start of the acquisition. Lorentzian noise is filtered over the entire spectral window before the Fourier transform on the top of the echo. […]

CCCCCCCC/C=C/CCCCCCCCOP(=O)(NCC[N+](C)(C)C)OCCCCCCCC/C=C/CCCCCCCC.[I-] [Compound I-1]
PdI [1]: 0.26
Size (nm) [1]: 94 nm
Zeta Potential (mV) [1]: +54 mV
structure of the supramolecular aggregates (self-organisation) [2]: lamellar form
